Key:
NIH3T3 cells = test: GFP-LC3 autophagy with ectopic FLIP expression; format: cell-based; conditions: Hank's solution 4 hr or 2 μM rapamycin 3 hr
Experimental: At 12-16 hours post-transfection with GFP-LC3, NIH3T3 cells containing vector or the FLIP gene were treated with Hank's solution for 4 hr or with 2 μM rapamycin for 3 hr. Subsequently, GFP-LC3 was detected using an inverted fluorescence microscope, autophagy was quantified as means (±SD) of the combined results from three independent experiments, and autophagosomes were visualized through scanning electron microscopy. NIH3T3-Vector, NIH3T3-KSHV-vFLIP, and NIH3T3-MCV-159L cells were treated with Hank's solution for 4 hr, followed by immunoblotting with anti-LC3 and anti-βTubulin. At 12-16 hr post-transfection with GFP-LC3, TREX-BCBL-Vector and TREX-BCBL-vFLIP cells were treated with doxycycline for 24 hr, followed by incubation with 2 μM rapamycin for an additional 12 hr. The detection of GFP-LC3 and autophagy levels was performed as described above, vFLIP expression was detected by IB with anti-Flag, and autophagosomes were visualized by scanning EM. TNF-induced apoptosis and NF-κB luciferase assay were performed as previously described (Matta and Chaudhary (2004) Proc. Natl. Acad. Sci. USA 101:9399-9404).
The anti-autophagic properties of vFLIP, as well as the related cFLIP, HSV, and MCV, were evaluated by ectopic expression of HVS, vFLIP, MCV 159L, and the short form of cFLIP (cFLIPs) in NIHI3T3 cells. DNA fragments corresponding to the coding sequences of the KSHV-vFLIP, human cFLIPs, MCV-MC159, and HVS-vFLIP genes were amplified via polymerase chain reaction and subcloned into pcDNA5/FRT/TO between the AflII and BamHI restriction sites or pEF-IRES-puro between the AflII and XbaI sites. Starvation studies were carried out by transfecting cells containing vector or the FLIP gene with GFP-LC3, then 12-16 h post-transfection, treating the cells with Hank's solution for 4 hr or with 2 μM rapamycin for 3 hr. Autophagy was assessed by GFP-LC3 redistribution using an inverted fluorescence microscope, quantifying autophagy as means (±SD) of the combined results from three independent experiments. Autophagosomes were visualized through scanning electron microscopy. […]

Atg3-LC3 interaction = molecular target: T1, Atg3-LC3 interaction (Homo sapiens, UniProt Q9NT62); test: Competition of vFLIP with LC3 for Atg3 binding (GST pulldown); conditions: increasing amount of Flag-vFLIP, HEK293T
T1 construct: expressed in transfected cells; host or cells: HEK293T
T1 sequence (Q9NT62 whole entry): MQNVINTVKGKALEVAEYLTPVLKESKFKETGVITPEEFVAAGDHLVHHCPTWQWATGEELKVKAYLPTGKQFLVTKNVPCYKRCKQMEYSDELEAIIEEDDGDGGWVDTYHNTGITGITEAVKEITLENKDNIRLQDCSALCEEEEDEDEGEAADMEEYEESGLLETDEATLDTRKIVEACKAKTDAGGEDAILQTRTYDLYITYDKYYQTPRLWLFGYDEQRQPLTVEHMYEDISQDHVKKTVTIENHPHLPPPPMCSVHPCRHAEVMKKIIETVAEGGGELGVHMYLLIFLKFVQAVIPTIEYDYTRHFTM
Experimental: Due to identical Atg3 binding patterns seen in vFLIP and LC3, the ability of vFLIP to directly compete with LC3 for Atg3 binding was tested. HEK293T cells were transfected with GST-Atg3 and GFP-LC3 along with increasing amount of Flag-vFLIP. At 48 hr post-transfection, GST pulldown was performed as described above, followed by immunoblotting with αGFP or αFlag.

Atg3 = molecular target: T2, Atg3 (Homo sapiens, UniProt Q9NT62); test: Co-immunoprecipitation of FLIP with Atg3 in HEK293T cells; format: binding; conditions: endogenously and exogenously expressed Atg3
T2 construct: GFP (alternative construct GFP-Atg3, not on the same molecule as GST); expressed in transfected cells; host or cells: HEK293T
T2 sequence (Q9NT62 whole entry): as above
Experimental: The ability of FLIP to bind to Atg3 was evaluated by co-immunoprecipitation assay. HEK293T cells were transfected with Flag-vFLIP and/or GFP-Atg3 or Flag-vFLIP and/or GST-Atg3, and at 48 hr post-transfection, cells were harvested and lysed in an NP40 buffer supplemented with complete protease inhibitor cocktail (Roche). After pre-clearing with protein A/G agarose beads for 1 hr at 4° C., whole-cell lysates were used for immunoprecipitation with αFlag, αGFP, or GST. Generally, 1-4 μg of the antibody was added to 1 ml of the cell lysate and incubated at 4° C. for 8 to 12 hr. The immunoprecipitates were then washed extensively with a lysis buffer and eluted by boiling them with an SDS loading buffer for 5 min. Following immunoprecipitation, samples were treated to immunoblot using αAtg3 (1:500) (Novus).

NF-κB = NF-κB luciferase reporter assay; format: cell-based; conditions: NIH3T3 cells, 48 hr post-transfection
Excerpt: To determine the effects of the interactions of vFLIP with FADD, IKKαβγ, and 14-3-3σ on anti-autophagy activity, NIH3T3 cells stably expressing various vFLIP mutants were constructed: m14-3-3σ, which lacks 14-3-3σ-binding; mTRAF2, which lacks TRAF2-binding (Guasparri et al. (2006) EMBO Rep. 7:114-119); 67AAA and 58AAA, which have reduced NF-κB activation (Matta and Chaudhary (2004) Proc. Natl. Acad. Sci. USA 101:9399-9404); and mFADD, which lacks FADD-binding (Yang et al. (2005) Mol. Cell. 20:939-949). These cells were treated with either cyclohexamide (CHX) alone or CHX and TNF-α for 12 hr or with 2 μM rapamycin for 3 hr. Propidium iodide (PI) staining and flow cytometry analysis were performed to determine apoptosis levels. Alternatively, NIH3T3 cells containing vector, KSHV vFLIP, or its mutants were transfected with an NF-κB-luciferase reporter construct and a control renilla luciferase plasmid, pRL-SV40 (Promega). At 48 hr post-transfection, luciferase activity was measured with a luminometer using a dual luciferase assay kit (Promega) and normalized with renilla luciferase activity to determine transfection efficiency. GFP-LC3 puncta were detected using an inverted fluorescence microscope and the autophagy levels quantified as means (±SD) of the results from three independent experiments.

KSHV vFLIP: viral FLICE-like inhibitor protein of Kaposi's sarcoma-associated herpesvirus, expressed in cells
suppression of starvation- and rapamycin-induced autophagy (NIH3T3 cells): strongly suppressed starvation- and rapamycin-induced autophagy
effect on Atg3-LC3 interaction (Atg3-LC3 interaction): marked decrease of Atg3-LC3 interaction
interaction with Atg3 (co-immunoprecipitation) (Atg3): strongly interacted with endogenously and exogenously expressed Atg3, even in the presence of a 1M NaCl salt concentration
NF-κB activation (NF-κB): carried out NF-κB activation
